Source: US10246489B2, “Peptide inhibitors of calcium oxalate monohydrate crystallization and uses thereof” (UNIVERSITY OF HOUSTON, priority 2013, dated 2019)
Entries after “also recorded” stand apart in the source; their conditions may differ.

Experiments:
[1] = Kinetic studies of COM growth at 60° C. using the calcium assay over 24 hours; conditions: 20 μg/mL peptide, 24-hour period
Protocol: A second library of peptides containing glutamic acid (E) and alanine (A) amino acids was synthesized. The sequences of E-peptides shown in Table 2 were used in bulk crystallization studies and kinetic studies to assess their role as growth inhibitors or promoters of COM crystallization. […] These analyses were performed using the calcium assay to track the kinetics of crystallization over a 24-hour period. The calcium ion concentration in the supernatant solution was assessed at periodic times.
(§1) Free calcium concentration in the crystallization solution was measured by a colorimetric assay using Quantichrome DICA 500 Calcium assay kit (BioAssay Systems, Hayward, Calif.). Standard solutions (0, 0.1, 0.2, 0.3, 0.4, 0.5, and 1 mM) were prepared using calcium solutions provided with the kit. Detection reagent was prepared by mixing equal volumes of reagent A and reagent B according to manufacturer's instructions. A 10 μL sample was withdrawn from the top of each crystallization well without disturbing the bottom and dispensed into a 96-well microplate. 100 μL of detection reagent was added to each well and incubated for 3 minutes at room temperature. The absorbance was measured at 612 nm using Biotek Synergy H4 microplate reader (BioTek, Winooski, Vt.). Calcium concentration was determined using a calibration curve prepared from standard calcium solutions.

[2] = In situ calcium ion-selective electrode (ISE) measurement of COM crystallization; conditions: for percent reduction in COM growth rate: 20 μg/ml additive, supersaturated calcium oxalate S=5.4, stirred, ISE slope in first 40 min vs control
Protocol: The COM growth rate was measured as the slope (dCa/dt) of decreasing Ca^2+ concentration within the first 40 min of crystallization. […] The percent reduction in COM growth rate was calculated by comparing the ISE slopes of peptides and control using the formula, Percent Reduction=[1−(dCa/dt)peptide/(dCa/dt)control]×100%. Data are averages of 2 or 3 measurements (error bars equal two standard deviations);
COM crystals for bulk crystallization studies were synthesized using a reported procedure that produces micron-sized crystals with large basal (100) surfaces. COM crystals prepared with molar composition 0.7 mM CaCl2: 0.7 mM Na2C2O4: 150 mM NaCl are referred to as the control. Growth solutions prepared with peptides used 20 μg/ml of the additive (unless otherwise stated).
As such, measurements reported herein were conducted at a single peptide concentration (20 μg/ml) to assess COM growth inhibition. To facilitate comparison of peptides in Table 1, Applicants calculated the percent reduction in COM growth rate using the relative difference in ISE slopes (units of ppm Ca^2+ per time) for peptide and control samples during the first 40 min of crystallization.
The slope of ISE curves (FIG. 2A) is the temporal change in free Ca^2+ concentration due to COM nucleation (primary and secondary) and crystal growth. Deconvoluting these two processes (nucleation and growth) from ISE data is nontrivial, particularly if one wishes to extract detailed kinetic information of COM growth rates. […] In the current study, the distinct advantage of ISE compared to more traditional approaches is its ease of use and the rapid time for data acquisition that enables high-throughput analysis of large peptide libraries.
A quantitative comparison of peptide efficacy for inhibiting COM crystallization was performed using in situ ISE measurements. The percent inhibition in COM growth rate was calculated using the relative difference in ISE slopes in the presence of 20 μg/mL peptide. […] The effect of Asp with Glu in peptide sequences was measured on COM growth inhibition (Table 2).

[3] = Wang et al. [11]; similar citrate concentration, lower supersaturation S=1.3; cited from earlier work
[4] = Bulk crystallization studies of COM crystal size and habit (optical microscopy, SEM, AFM)
Protocol: FIGS. 4A-4B show macroscopic characterization of COM crystals from bulk crystallization in solutions of 0.5 mM CaC2O4 and 20 μg/ml peptide. Optical microscopy was used to measure: Percent distribution of elongated hexagonal platelet (shaded bars) and diamond platelet (pattern bars) crystal morphologies (FIG. 4A); and length of the COM (100) basal surface measured along the direction (i.e. apical tip-to-tip distance) for hexagonal and diamond morphologies (FIG. 4B). Data in (FIG. 4A) and (FIG. 4B) are the average of three separate crystallization experiments performed at 60° C. for 3 days (error bars equal one standard deviation). Data for peptide D4 (diamond habit) was omitted based on too few crystals for statistical analysis;
COM crystals for bulk crystallization studies were synthesized using a reported procedure that produces micron-sized crystals with large basal (100) surfaces. COM crystals prepared with molar composition 0.7 mM CaCl2: 0.7 mM Na2C2O4: 150 mM NaCl are referred to as the control. Growth solutions prepared with peptides used 20 μg/ml of the additive (unless otherwise stated). The crystals were characterized by optical microscopy using a Leica DM2500-M microscope, scanning electron microscope (SEM) using a FEI 235 Dual-Beam Focused Ion-beam instrument, atomic force microscopy (AFM) using an Asylum MFP-3D-SA instrument (Santa Barbara, Calif.), and a calcium ion-selective electrode (ISE, ThermoScientific).
ISE measurements can be used to screen peptide efficacy, but provide little information regarding the specificity of peptide binding to different surfaces of COM crystals. To this end, Applicants used a second analysis step to identify the effect of peptides on COM crystal size and habit. The influence of the peptide library on macroscopic properties of COM crystals was assessed using bulk crystallization studies and optical and scanning electron microscopy to characterize COM crystals grown in the presence of peptides. In vitro, COM crystallization yields elongated hexagonal platelets with {100} basal surfaces bounded by {010} and crystallographically equivalent {121} apical surfaces (FIG. 3A). […] Applicants observed that multiple peptides in the library reduced growth along the directions, which decreased the crystal aspect ratio (length-to-width) and shifted the morphology from hexagonal to diamond platelets. This change in crystal habit can be attributed to the preferential binding of peptides to COM {121} surfaces, which slows growth along the naturally fast growth directions within the (100) plane.
To more systematically assess the surface topography of COM crystals, Applicants used atomic force microscopy (AFM) to probe the effect of peptides on COM (100) surface roughness. Crystals extracted from control and peptide D5 batches were prepared on AFM sample disks and imaged in air. The RMS roughness for (100) surfaces of hexagonal-shaped crystals from the control and test peptide D5 were approximately 1.0 and 4.3 nm, respectively.
Crystal batches prepared in bulk studies were analyzed using optical microscopy to quantify changes in COM crystal size and aspect ratio. […] Although there were clear differences in the percent population of diamond-shaped crystals among peptides tested in this study, Applicants observed that the size of diamond crystals were generally the same, irrespective of peptide sequence (FIG. 4B). The majority of COM hexagonal platelets in peptide samples had similar size and aspect ratio as the control (here Applicants only report the length of COM crystals in FIG. 4B). A notable exception, however, was peptide D4, which produced a 22% increase in the length-to-width aspect ratio of COM hexagonal crystals, and an increase in the length from 35 μm (control) to 75 μm (peptide D4).

[5] = High-throughput colorimetric calcium depletion assay (crystallization half-time); conditions: 37° C., crystallization volume 600 μL, shaking; logistic fit
Protocol: as §1
Time course of depletion of free calcium in the crystallization solution, normalized to the initial concentration, was fitted to a nonlinear logistic function using OriginPro Software (Origin Lab, Northhampton, Mass.). The logistic function relating calcium concentration to time is given by
where [Ca]t is the normalized calcium concentration at time t, A1 is the normalized initial supersaturation concentration (i.e at t=0), A2 is the normalized equilibrium concentration (i.e. at t=∞), p is the hill coefficient which represents slope of the curve at midpoint, and t1/2 is the crystallization half-time (CHT), defined as the time at which crystallization is 50% complete (i.e. [Ca]t1/2=[…]). A1 was fixed at 1, and A2, p and t1/2 were obtained from fitting the data to equation 1. CHT was used as a measure of inhibition potentials of the peptides. A one-way ANOVA in combination with Tukey post hoc test at p<0.05 level was used to probe statistical significance. Applicants' studied the effects of experimental parameters including volume, shaking and temperature on crystallization in designing a high-throughput screening assay. Applicants have shown the logistic model effectively represents the three phases: induction, crystal growth and equilibrium observed in our setup, and CHT (t1/2) can be used as a measure of efficacy of potential crystal growth modifiers. The peptide library screened comprised of Asp and Ala residues (peptides D1-D13) at optimized assay conditions of 37° C., crystallization volume of 600 μL in a shaking environment. […] The high throughput of the assay provides the opportunity to assess the growth modulation potential of crystal growth modifiers at varying modifier concentrations, supersaturations and ionic strengths with relative ease. […] Finally, the assay can be translated to other crystallization systems in a relatively straightforward fashion for rational design and discovery of growth modifiers for specific applications.

Compound: A-E-A-E-A-E-A-E-A-E-A-E-A-E-A-E-A-E (AEAEAEAEAEAEAEAEAE; Synthesized Calcium oxalate monohydrate inhibitory polypeptide) [E10]
- inhibition of COM crystal growth (calcium in supernatant over time) [1]: inhibition of COM crystal growth; also recorded: more effective inhibitor than E11

Compound: E-E-E-E-E-E-E-E-E-E-E-E-E-E-E-E-E-E (EEEEEEEEEEEEEEEEEE; Synthesized Calcium oxalate monohydrate inhibitory polypeptide) [E11]
- inhibition of COM crystal growth (calcium in supernatant over time) [1]: inhibition of COM crystal growth

Compound: O=C(O)CC(O)(CC(=O)O)C(=O)O [citrate, reference compound]
- percent reduction in COM growth rate [2]: 28±6%
- reduction in COM growth rate [3]: 48%

Compound: ADAAADDAAADAAAADAA (Synthesized Calcium oxalate monohydrate inhibitory polypeptide) [D8]
- percent reduction in COM growth rate [2]: ~6%
- increase in peptide efficacy on replacing L-Ala spacer with L-Asp binder (relative to peptide D7) ([2]; ISE, 20 μg/ml, series D7, D8, D9): an order of magnitude increase in efficacy
- percentage of diamond-shaped crystals in total crystal population ([4]; 20 μg/ml peptide, 60° C. for 3 days, optical microscopy, average of three experiments): largest populations of diamond-shaped crystals
- population of diamond crystals on doubling peptide concentration ([4]; concentration increased from 20 to 40 μg/ml): did not observe an appreciable increase in the population of diamond crystals
- CHT (hr), crystallization half-time [5]: 4.792 h
